Test results taken from patent publication US20150289513A1, “USE OF A COMPOUND COMPRISING A POLYFLUOROBENZYL MOIETY AGAINST INSECTICIDE-RESISTANT PESTS” (priority 2012, published 2015).

Tests used:
[1] = test system: Anopheles funestus (metabolic-resistant strain FUMOZ-R); test: Glazed tile contact test, knock-down; type: in vivo
Experimental: (§1) To produce a suitable preparation Transfluthrin was dissolved in acetone. The active compound solution was pipetted onto a glazed tile and, after drying, adult mosquitoes of the species: • Anopheles gambiae (target-site-resistant and metabolic-resistant strain: RSPH), • Anopheles gambiae (target-site-resitant and metabolic-resistant strain: Tiassalé), • Anopheles gambiae (tar et-site-resitant and metabolic-resistant strain: Akron), • Anopheles gambiae (target-site-resistant strain: VK7), and • Anopheles funestus (metabolic-resistant strain FUMOZ-R) were placed onto the treated tile (each strain was tested on separate tiles). The exposition time was 30 minutes.
(§2) 0.25 hours, 0.5 hours, 1 hour, 2 hour, 3 hour, 4 hour and 24 hours after contact to the treated surface, the knock-down proportion of the test animals in % was determined. Here, 100% (effect) means that all mosquitoes have been killed; 0% (effect) means that none of the mosquitoes have been killed.
(§3) Similarly as outlined in example 2 for Transfluthrin, Metofluthrin efficacy was assessed against • Anopheles gambiae (target-site-resistant and metabolic-resistant strain: RSPH), • Anopheles funestus (metabolic-resistant strain FUMOZ-R), and • Culex quinquefasciatus (metabolic-resistant to DDT; strain P00), with the results shown in Tables 10 to 12. 0.25 hours, 0.5 hours, 1 hour, 2 hour, 3 hour, 4 hour and 24 hours after contact to the treated surface, the knock-down proportion of the test animals in % is depicted in Tables 10 to 12. 100% (effect) means that all mosquitoes have been killed; 0% (effect) means that none of the mosquitoes have been killed.
(§4) Similarly as outlined in example 2 for Transfluthrin, Metofluthrin efficacy was assessed against • Anopheles gambiae (target-site-resistant and metabolic-resistant strain: RSPH), • Anopheles funestus (metabolic-resistant strain FUMOZ-R), and with the results shown in Tables […]. 0.25 hours, 0.5 hours, 1 hour, 2 hour and 3 hours after contact to the treated surface, the knock-down proportion of the test animals in % is depicted in Tables 13 to 14. 100% (effect) means that all mosquitoes have been killed; 0% (effect) means that none of the mosquitoes have been killed.

[2] = test system: Anopheles gambiae (target-site-resistant and metabolic-resistant strain: RSPH); test: Glazed tile contact test, knock-down; type: in vivo
Experimental: as §1, §2, §3, §4

SMILES: COCc1c(F)c(F)c(COC(=O)C2C(C=C(C)C#N)C2(C)C)c(F)c1F (centres unmarked) [Momfluorothrin, 2,3,5,6-Tetrafluoro-4-(methoxymethyl)benzyl 3-(2-cyano-1-propen-1-yl)-2,2-dimethylcyclopropanecarboxylate]
- Effect % ([1]; 1.6 g/ha, 0.25 h after contact): 0%
- Effect % ([1]; 1.6 g/ha, 0.5 h after contact): 0%
- Effect % ([1]; 1.6 g/ha, 1 h after contact): 0%
- Effect % ([1]; 1.6 g/ha, 2 h after contact): 10%
- Effect % ([1]; 1.6 g/ha, 3 h after contact): 20%
- Effect % ([1]; 40 g/ha, 0.25 h after contact): 100%
- Effect % ([1]; 40 g/ha, 0.5 h after contact): 100%
- Effect % ([1]; 40 g/ha, 1 h after contact): 100%
- Effect % ([1]; 40 g/ha, 2 h after contact): 90%
- Effect % ([1]; 40 g/ha, 3 h after contact): 100%
- Effect % ([2]; 1.6 g/ha, 0.25 h after contact): 10%
- Effect % ([2]; 1.6 g/ha, 0.5 h after contact): 7%
- Effect % ([2]; 1.6 g/ha, 1 h after contact): 35%
- Effect % ([2]; 1.6 g/ha, 2 h after contact): 14%
- Effect % ([2]; 1.6 g/ha, 3 h after contact): 14%
- Effect % ([2]; 40 g/ha, 0.25 h after contact): 100%
- Effect % ([2]; 40 g/ha, 0.5 h after contact): 100%
- Effect % ([2]; 40 g/ha, 1 h after contact): 100%
- Effect % ([2]; 40 g/ha, 2 h after contact): 100%
- Effect % ([2]; 40 g/ha, 3 h after contact): 100%
